By inhibition is commonly meant the drop in the measured response relative to a control, in per cent.

Inhibition data for 1 compound are collected here from publication PMC7180948, “New Insights into 4-Anilinoquinazolines as Inhibitors of Cardiac Troponin I–Interacting Kinase (TNNi3K)” (Molecules, 2020).

Test in all cases: biochemical
Holding throughout (set-up): KINOMEscan competition binding panel (Eurofins DiscoverX), single concentration, percent inhibition
Common to all, as to settings: read-out: 15 at 1 µM % inhibition

For one assay, the target named is MAP4K5 (Homo sapiens, UniProt Q9Y4K4). The essentials: (§1)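 Selectivity profile from a KINOMEscan run against >400 human kinases; test concentration 1 µM.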
Another assay has as its target T1, PCTK3 (Homo sapiens, UniProt Q07002).
T1 construct: gene CDK18
The essentials: as §1

For the next assay, the target named is T2, BIKE (Homo sapiens, UniProt Q9NSY1).
T2 construct: gene BMP2K
The essentials:
as §1

In a further assay the target is NEK2 (Homo sapiens, UniProt P51955). The essentials: as §1
In assay [1] the target is T3, ABL1(Q252H)-nonphosphorylated (Homo sapiens, UniProt P00519, Q252H).
T3 construct: nonphosphorylated
In short, it runs like this:
as §1

A further assay concerns the target MAP3K3 (Homo sapiens, UniProt Q99759). In short, it runs like this: as §1
For the next assay, the target named is EGFR(L858R,T790M) (Homo sapiens, UniProt P00533, L858R/T790M). In short, it runs like this: as §1
A further assay concerns the target RAF1 (Homo sapiens, UniProt P04049). The essentials:
as §1

In the next assay the target is INSRR (Homo sapiens, UniProt P14616). The essentials: as §1
Another assay has as its target TGFBR1 (Homo sapiens, UniProt P36897). In short, it runs like this: as §1
The target of assay [2] is T4, ABL1(F317L)-nonphosphorylated (Homo sapiens, UniProt P00519, F317L).
T4 construct: nonphosphorylated
The essentials: as §1

A further assay deals with TRPM6 (Homo sapiens, UniProt Q9BX84). The essentials: as §1
For another assay, the target named is ZAP70 (Homo sapiens, UniProt P43403). The essentials:
as §1

For a further assay, the target named is T5, p38-beta (Homo sapiens, UniProt Q15759).
T5 construct: gene MAPK11
The essentials: as §1

The next assay concerns the target MAP4K2 (Homo sapiens, UniProt Q12851). In short, it runs like this:
as §1

In the next assay the target is NLK (Homo sapiens, UniProt Q9UBE8). In short, it runs like this: as §1
For a further assay, the target named is T6, MLK2 (Homo sapiens, UniProt Q02779).
T6 construct: gene MAP3K10
In short, it runs like this:
as §1

The target of a further assay is GRK2 (Homo sapiens, UniProt P25098). In short, it runs like this:
as §1

Assay [3] deals with T7, RPS6KA4(Kin.Dom.2-C-terminal) (Homo sapiens, UniProt O75676).
T7 construct: Kin.Dom.2-C-terminal
The essentials: as §1

The next assay has as its target TSSK1B (Homo sapiens, UniProt Q9BXA7). The essentials: as §1
A further assay has as its target KIT(L576P) (Homo sapiens, UniProt P10721, L576P). The essentials:
as §1

For another assay, the target named is T8, ABL1-phosphorylated (Homo sapiens, UniProt P00519).
T8 construct: phosphorylated
In short, it runs like this: as §1

The target in the next assay is T9, MLK1 (Homo sapiens, UniProt P80192).
T9 construct: gene MAP3K9
In short, it runs like this:
as §1

A further assay addresses RIOK2 (Homo sapiens, UniProt Q9BVS4). In short, it runs like this: as §1

Chain of NEK2 (P51955 whole entry): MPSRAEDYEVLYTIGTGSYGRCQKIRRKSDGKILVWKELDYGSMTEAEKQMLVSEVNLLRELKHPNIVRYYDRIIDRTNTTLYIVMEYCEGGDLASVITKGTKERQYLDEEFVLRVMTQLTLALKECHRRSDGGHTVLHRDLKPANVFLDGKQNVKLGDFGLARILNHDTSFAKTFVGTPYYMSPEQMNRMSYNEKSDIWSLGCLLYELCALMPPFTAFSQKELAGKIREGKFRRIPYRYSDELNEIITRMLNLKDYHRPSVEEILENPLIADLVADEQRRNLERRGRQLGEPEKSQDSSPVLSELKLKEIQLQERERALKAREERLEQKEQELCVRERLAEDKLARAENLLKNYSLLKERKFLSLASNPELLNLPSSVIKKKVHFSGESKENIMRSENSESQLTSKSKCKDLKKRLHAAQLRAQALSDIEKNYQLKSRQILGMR
Chain of INSRR (P14616 whole entry): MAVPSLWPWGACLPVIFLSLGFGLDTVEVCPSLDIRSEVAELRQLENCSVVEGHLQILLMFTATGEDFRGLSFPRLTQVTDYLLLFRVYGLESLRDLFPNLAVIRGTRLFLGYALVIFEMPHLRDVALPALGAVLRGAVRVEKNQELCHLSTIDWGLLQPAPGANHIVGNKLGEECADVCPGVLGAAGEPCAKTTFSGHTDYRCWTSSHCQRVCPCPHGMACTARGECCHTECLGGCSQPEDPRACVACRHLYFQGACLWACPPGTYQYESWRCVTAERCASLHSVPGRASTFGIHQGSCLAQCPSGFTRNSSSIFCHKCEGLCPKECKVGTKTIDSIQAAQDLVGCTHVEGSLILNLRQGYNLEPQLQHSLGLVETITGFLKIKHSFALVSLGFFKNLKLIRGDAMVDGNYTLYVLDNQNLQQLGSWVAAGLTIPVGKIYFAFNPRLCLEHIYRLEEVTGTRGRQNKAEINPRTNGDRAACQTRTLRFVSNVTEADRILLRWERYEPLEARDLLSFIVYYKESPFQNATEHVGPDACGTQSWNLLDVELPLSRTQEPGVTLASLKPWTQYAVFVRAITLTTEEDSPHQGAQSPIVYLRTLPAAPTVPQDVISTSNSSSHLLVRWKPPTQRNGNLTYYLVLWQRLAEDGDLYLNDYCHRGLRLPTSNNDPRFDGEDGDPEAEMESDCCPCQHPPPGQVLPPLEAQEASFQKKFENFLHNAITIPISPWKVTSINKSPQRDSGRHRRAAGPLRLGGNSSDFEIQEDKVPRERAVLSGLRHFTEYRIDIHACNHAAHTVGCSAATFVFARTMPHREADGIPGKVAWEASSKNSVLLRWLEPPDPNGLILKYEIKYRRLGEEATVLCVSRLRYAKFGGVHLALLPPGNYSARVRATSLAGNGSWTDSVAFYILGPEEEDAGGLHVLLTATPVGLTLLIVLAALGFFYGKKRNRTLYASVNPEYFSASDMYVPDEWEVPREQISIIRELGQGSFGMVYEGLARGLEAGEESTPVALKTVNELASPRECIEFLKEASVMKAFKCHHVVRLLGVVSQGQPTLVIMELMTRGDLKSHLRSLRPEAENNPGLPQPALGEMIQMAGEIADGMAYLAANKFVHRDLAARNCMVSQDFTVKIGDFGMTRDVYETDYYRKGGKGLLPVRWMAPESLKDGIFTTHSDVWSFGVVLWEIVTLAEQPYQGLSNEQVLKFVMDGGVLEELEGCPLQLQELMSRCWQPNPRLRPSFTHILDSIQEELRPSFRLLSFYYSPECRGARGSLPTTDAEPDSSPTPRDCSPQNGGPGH
Chain of RAF1 (P04049 whole entry): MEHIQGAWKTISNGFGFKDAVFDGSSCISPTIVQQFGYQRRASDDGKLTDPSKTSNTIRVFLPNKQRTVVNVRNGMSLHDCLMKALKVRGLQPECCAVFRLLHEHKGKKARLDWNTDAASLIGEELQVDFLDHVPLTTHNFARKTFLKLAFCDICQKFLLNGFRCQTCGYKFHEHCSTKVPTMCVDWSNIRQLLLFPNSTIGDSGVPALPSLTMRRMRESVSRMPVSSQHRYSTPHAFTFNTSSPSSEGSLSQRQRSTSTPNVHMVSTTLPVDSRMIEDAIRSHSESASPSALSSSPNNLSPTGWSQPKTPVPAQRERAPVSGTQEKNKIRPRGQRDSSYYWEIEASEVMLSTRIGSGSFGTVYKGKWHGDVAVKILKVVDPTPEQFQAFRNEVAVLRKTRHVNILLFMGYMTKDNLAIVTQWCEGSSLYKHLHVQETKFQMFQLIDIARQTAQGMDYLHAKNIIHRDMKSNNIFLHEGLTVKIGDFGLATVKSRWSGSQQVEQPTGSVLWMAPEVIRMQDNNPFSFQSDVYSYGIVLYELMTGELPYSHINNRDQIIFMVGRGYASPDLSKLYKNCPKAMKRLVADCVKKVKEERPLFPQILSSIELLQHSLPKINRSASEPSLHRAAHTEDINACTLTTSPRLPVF
Chain of MAP3K3 (Q99759 whole entry): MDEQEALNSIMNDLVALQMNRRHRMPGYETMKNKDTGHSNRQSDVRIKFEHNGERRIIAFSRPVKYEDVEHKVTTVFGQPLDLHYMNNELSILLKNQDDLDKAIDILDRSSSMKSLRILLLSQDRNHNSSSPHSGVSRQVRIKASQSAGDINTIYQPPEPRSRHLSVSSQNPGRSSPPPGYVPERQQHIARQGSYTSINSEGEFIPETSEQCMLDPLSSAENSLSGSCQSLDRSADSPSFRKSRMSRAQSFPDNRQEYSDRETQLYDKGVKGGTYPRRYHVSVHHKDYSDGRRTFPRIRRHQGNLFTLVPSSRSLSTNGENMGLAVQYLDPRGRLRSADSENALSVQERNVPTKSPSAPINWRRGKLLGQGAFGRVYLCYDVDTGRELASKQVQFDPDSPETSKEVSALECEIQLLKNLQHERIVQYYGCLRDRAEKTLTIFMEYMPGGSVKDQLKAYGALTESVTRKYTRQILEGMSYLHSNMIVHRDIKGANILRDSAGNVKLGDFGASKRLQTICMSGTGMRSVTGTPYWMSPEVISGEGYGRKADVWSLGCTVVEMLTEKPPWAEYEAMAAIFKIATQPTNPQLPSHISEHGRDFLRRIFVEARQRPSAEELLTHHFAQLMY
T9 sequence (P80192 whole entry): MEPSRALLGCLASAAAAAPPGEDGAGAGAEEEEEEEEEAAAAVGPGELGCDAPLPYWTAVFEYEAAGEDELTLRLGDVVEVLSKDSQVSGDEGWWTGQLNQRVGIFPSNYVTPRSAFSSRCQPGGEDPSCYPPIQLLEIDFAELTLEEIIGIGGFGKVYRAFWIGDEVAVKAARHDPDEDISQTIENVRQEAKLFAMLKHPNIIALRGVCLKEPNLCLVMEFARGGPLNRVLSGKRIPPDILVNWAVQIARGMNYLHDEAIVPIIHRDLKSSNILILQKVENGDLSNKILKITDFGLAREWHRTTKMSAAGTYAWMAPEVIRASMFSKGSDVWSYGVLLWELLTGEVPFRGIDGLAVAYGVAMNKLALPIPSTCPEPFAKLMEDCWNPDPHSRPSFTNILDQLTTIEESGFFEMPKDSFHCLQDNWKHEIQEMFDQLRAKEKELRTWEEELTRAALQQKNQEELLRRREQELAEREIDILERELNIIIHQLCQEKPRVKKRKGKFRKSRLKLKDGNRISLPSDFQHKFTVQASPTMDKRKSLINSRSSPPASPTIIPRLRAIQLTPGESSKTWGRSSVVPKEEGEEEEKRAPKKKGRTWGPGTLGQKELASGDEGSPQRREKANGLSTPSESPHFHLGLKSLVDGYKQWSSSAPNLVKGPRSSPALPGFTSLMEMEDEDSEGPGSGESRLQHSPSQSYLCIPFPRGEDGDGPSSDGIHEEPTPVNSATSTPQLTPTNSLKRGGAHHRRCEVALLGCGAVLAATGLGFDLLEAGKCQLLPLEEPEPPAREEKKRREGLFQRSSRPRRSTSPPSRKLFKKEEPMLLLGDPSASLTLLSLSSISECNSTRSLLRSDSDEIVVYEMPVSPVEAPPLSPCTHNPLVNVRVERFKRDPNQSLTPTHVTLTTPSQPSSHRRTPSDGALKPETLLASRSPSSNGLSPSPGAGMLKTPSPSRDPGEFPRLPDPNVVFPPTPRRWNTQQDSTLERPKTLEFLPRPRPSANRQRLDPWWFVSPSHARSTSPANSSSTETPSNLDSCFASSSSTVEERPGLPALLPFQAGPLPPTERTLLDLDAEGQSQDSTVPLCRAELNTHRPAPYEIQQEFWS
T1 sequence (Q07002 whole entry): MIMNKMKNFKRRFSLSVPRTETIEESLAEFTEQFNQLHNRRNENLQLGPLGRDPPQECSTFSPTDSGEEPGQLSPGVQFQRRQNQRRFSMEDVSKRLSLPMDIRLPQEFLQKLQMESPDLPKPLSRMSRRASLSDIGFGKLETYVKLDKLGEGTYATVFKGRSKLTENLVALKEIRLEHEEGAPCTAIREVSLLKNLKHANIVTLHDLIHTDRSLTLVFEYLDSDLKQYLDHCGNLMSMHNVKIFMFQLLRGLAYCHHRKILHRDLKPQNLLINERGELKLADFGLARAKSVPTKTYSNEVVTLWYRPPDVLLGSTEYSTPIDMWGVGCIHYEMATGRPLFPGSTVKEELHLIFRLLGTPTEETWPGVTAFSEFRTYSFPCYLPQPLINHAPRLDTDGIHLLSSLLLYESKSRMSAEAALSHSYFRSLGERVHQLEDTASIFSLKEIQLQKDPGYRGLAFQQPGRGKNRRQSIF
T5 sequence (Q15759 whole entry): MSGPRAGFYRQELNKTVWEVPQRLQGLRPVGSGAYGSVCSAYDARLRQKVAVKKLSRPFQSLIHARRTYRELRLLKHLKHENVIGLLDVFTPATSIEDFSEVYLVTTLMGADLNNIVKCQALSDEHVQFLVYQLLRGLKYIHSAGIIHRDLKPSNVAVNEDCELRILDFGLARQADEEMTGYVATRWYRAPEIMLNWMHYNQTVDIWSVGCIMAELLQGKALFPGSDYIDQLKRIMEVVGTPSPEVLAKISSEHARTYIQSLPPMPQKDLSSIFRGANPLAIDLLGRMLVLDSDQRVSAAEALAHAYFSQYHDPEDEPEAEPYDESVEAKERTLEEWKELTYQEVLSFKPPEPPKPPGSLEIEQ

On to `CNS(=O)(=O)c1ccc(N(C)C)c(Nc2nc(C)nc3cc(OC)c(OC)cc23)c1` [compound 15, 3-((6,7-dimethoxy-2-methylquinazolin-4-yl)amino)-4-(dimethylamino)-N-methylbenzenesulfonamide], for which the inhibition at 1 µM at MAP4K5 came out at 3%; on PCTK3 it was 0%; on BIKE, 0%; on NEK2, 1%; in [1], 33%; at MAP3K3, 44%. Moreover, the inhibition at 1 µM stood at 16% on EGFR(L858R,T790M); 0% on RAF1; 22% on INSRR; 0% at TGFBR1; 33% in assay [2]; 6% at TRPM6. Moreover, the inhibition at 1 µM at ZAP70 stood at 0%; at p38-beta, 0%; on MAP4K2, 3%; on NLK, 0%; at MLK2 it was 0%; at GRK2, 10%. Also, the inhibition at 1 µM in assay [3] came out at 16%; on TSSK1B, 9%; at KIT(L576P) it was 0%; on ABL1-phosphorylated, 0%; on MLK1 it was 0%; on RIOK2, 9%.
